Reference: patent US20150284347A1, “NEW BENZENE SULFONAMIDE THIAZOLE COMPOUNDS” (INSERM (INSTITUT NATIONAL DE LA SANTÉ ET DE LA RECHERCHE …, priority 2012, published 2015)

Assays:
colon cells HT29 = assay: Trypan blue cell viability, HT29; format: cell-based; settings: 10 μM, HT29, trypan blue exclusion, FIG. 1
Procedure: (§1) Cell viability was assessed by measuring the number of cells alive in samples of two different kind of prostate cells, respectively noted LNCAP and PC3, of breast cells noted MCF7, of colon cells noted HT29, of metastatic melanoma cell lines A375 and of melanoma cells from patients noted GIC. The measure of cell viability as performed by cell counting using the trypan blue exclusion method. Results were expressed as the percentage of cells alive relatively to the number of living cells in the presence of DMSO, which corresponds to the negative control associated to the 100% value. Cells were seeded in 6-well plates (60000 cells/well), depleted and incubated with compounds for the times indicated. Then cells were detached in the presence of 2000 of […] (Thermo) and 2 ml of RPMI 1640 Glutamax (Gibco) was added to the cell solution. 100 of this solution was stained for 1 minute with 100 of 0.4% trypan blue before counting with a Malassez chamber. The effect of compound on cell viability was studied on different types of cells. […] Cancer cells from prostate, breast, colon and melanoma A375 came from cell lines cultures. […] Results are expressed as percentage of cells alive relatively to the number of living cells in the presence of DMSO, which corresponds to the negative control associated to the 100% value. […]

A375 melanoma cells = assay: A375 melanoma xenograft tumor development in nude mice; format: in vivo; settings: 0.7 mg/mouse/day over 24 days, athymic nude mice
Procedure: To assess a potential antineoplastic effect of (HA15) and (SR50) in vivo, A375 melanoma cells (2.5×10^6) were injected subcutaneously in 6-week-old female athymic nude mice and treated 5 days later by injection of vehicle (labrafil) or different compounds such as PLX4032, (HA15) and (SR50) (0.7 mg/mouse/day) over a period of 24 days. Inhibitory effect is expressed as the tumor volume (mm^3) on day 8, 11, 15, 18, 22 and 24.
Athymic BALB/C nu/nu mice (Harlan) were used. The animals were 6 weeks old and weighed between 20 and 25 g. The mice were housed in the animal's C3M in a 12 h/12 h cycle. The animals received water and food ad libitum. Mice were first acclimated for one week and then injected with A375 cells (2.5 million cells in 200 μl of PBS) subcutaneously into the right and left sides. Treatment was started eight days after injection of cancer cells (when tumors were visible). The various compounds were diluted in a mixture of Labrafil (90%) (Gattefosse), Tween 80 (1%) and N,N-Dimethylacetamide (9%). Five groups of six mice treated every day intraperitoneally with 0.7 mg/day of PLX4032, SR44 (HA15), SR47 (HA32), SR50 (JG25) or with the mixture of Labrafil in control were defined. Three times a week the tumor size was measured using a caliper. […]

[1] = system: melanoma cells from patients GIC; assay: Trypan blue cell viability, patient melanoma cells GIC; format: cell-based, human; settings: 10 μM, trypan blue exclusion, FIG. 1
Procedure: Cell viability was assessed by measuring the number of cells alive in samples of two different kind of prostate cells, respectively noted LNCAP and PC3, of breast cells noted MCF7, of colon cells noted HT29, of metastatic melanoma cell lines A375 and of melanoma cells from patients noted GIC. The measure of cell viability as performed by cell counting using the trypan blue exclusion method. Results were expressed as the percentage of cells alive relatively to the number of living cells in the presence of DMSO, which corresponds to the negative control associated to the 100% value. Patient melanoma cells were prepared from biopsy after digestion for 1-2 h with collagenase A (0.33 U/ml), dispase (0.85 U/ml) and Dnase I (144 U/ml) at 37° C. Large debris were removed by filtration through a […] cell strainer. Cells were seeded in 6-well plates (60000 cells/well), depleted and incubated with compounds for the times indicated. Then cells were detached in the presence of 2000 of […] (Thermo) and 2 ml of RPMI 1640 Glutamax (Gibco) was added to the cell solution. 100 of this solution was stained for 1 minute with 100 of 0.4% trypan blue before counting with a Malassez chamber. […] Results are expressed as percentage of cells alive relatively to the number of living cells in the presence of DMSO, which corresponds to the negative control associated to the 100% value. […]

prostate cells PC3 = assay: Trypan blue cell viability, PC3; format: cell-based; settings: 10 μM, PC3, trypan blue exclusion, FIG. 1
Procedure: as §1

[2] = system: metastatic melanoma cell line A375; assay: Trypan blue cell viability, A375; format: cell-based; settings: 10 μM, A375, trypan blue exclusion, FIG. 1

SMILES: CC(=O)Nc1nc(-c2cccc(NS(=O)(=O)c3cccc4c(N(C)C)cccc34)c2)cs1 [HA15, N-(4-(3-(5-(dimethylamino)naphthalene-1-sulfonamido)phenyl)thiazol-2-yl)acetamide]
- cell viability (cells alive relative to DMSO) (colon cells HT29): viability greatly reduced
- ability of cells to develop visible tumors (A375 melanoma cells): markedly attenuated
- cell viability (cells alive relative to DMSO) [1]: viability greatly reduced
- cell viability (cells alive relative to DMSO) (prostate cells PC3): viability greatly reduced
- cell viability (cells alive relative to DMSO) [2]: viability greatly reduced
